Measured values: patent US10793625B2, “Compositions and methods for treating or preventing osteoarthritis” (THE JOHNS HOPKINS UNIVERSITY, priority 2012, dated 2020)
Like-named read-outs stand apart in the source and are kept apart here.

Key:
MSCs = assay: Western blot of Smad phosphorylation in cultured MSCs treated with recombinant hTGF-β1; type: cell-based, mouse
Description: Cell Culture. We obtained green fluorescent protein (GFP)-labeled mouse adult MSCs from the Texas A&M Health Science Center College of Medicine Institute (College Station). We maintained cells (Passage 3-5) Iscove's modified Dulbecco's medium (Invitrogen) supplemented with 10% fetal calf serum (Atlanta Biologicals), 10% horse serum (Thermo Scientific), and (% penicillin-streptomycin (Mediatech). We cultured MSCs in 6-well plates at a density of 1.8×10^5 cells per well, then starved them for 6 h followed by TGF-β1 (R&D Systems) and TβRI inhibitor (SB-505124) (Sigma-Aldrich) treatment as indicated.
ELISA and Western Blot, We determined the concentration of active TGF-β1 in the conditioned media by the ELISA Development kit (R&D Systems) according to the manufacturer's instructions. Western blot analyses were conducted on the protein of lysates from in vitro cultured MSCs. The cell lysates were centrifuged and the supernatants were separated by SDS-PAGE and blotted on polyvinylidene fluoride membrane (Bio-Rad Laboratories). Following incubation in specific antibodies, we detected proteins using an enhanced chemiluminescence kit (Amersham Biosciences). […]

9-month-old ACLT mice = assay: ACLT or sham surgery in 9 month old mice treated with TβRI inhibitor; type: in vivo, mouse; conditions: for articular cartilage degeneration / subchondral bone structure / architecture: 1 mg/kg daily for 1 month
Description: (FIG. 12A) Safranin O staining of tibia articular cartilage and subchondral bone of mice sacrificed at 0, 14, 30, and 60 days post sham or ACLT surgery and treated with either vehicle or TβRI inhibitor (SB505124-1 mg/kg) daily beginning 3 days post-surgery for 1 month. For those mice analyzed at earlier time points, the mice were treated until sacrificed. (FIG. 12B) 3D μCT images of subchondral bone of knee joints. The sham operated mice maintained articular cartilage and subchondral bone structure throughout the duration of the experiment. […] (FIG. 12C) OARSI score based on the histology analysis. Quantitative analysis of structural parameters by μCT analysis: (FIG. 12D) thickness of subchondral bone plate (SBP) and (FIG. 12E) trabecular pattern factor (Tb. Pf). […] Ve-Sham: vehicle treated in sham operated; In-Sham: TβRI inhibitor treat in sham operated; Ve-ACLT: vehicle treated in ACLT operated; In-ACLT: TβRI inhibitor treated in ACLT operated mice.
Histochemistry, Immunohistochemistry and Histomorphometry. […] Immunostaining was performed using standard protocol. […] We calculated OARSI scores as previously described.
Micro-Computed Tomography (μCT). […] Th: trabecular thickness, Tb. Sp: trabecular separation, SMI, Conn. Dn: connectivity density, and Tb.Pf: trabecular pattern factor.

[1] = system: Dunkin Hartley guinea pig spontaneous osteoarthritis; assay: Dunkin Hartley guinea pig spontaneous osteoarthritis, MRI of knee joints; type: in vivo; conditions: injected for 3 months
Source text: (FIG. 16A) MRI scanning of knee joints of the guinea pig with different dose of TβRI inhibitor or vehicle treatment for 3 months. Red arrows pointing the bone marrow lesions in the subchondral bone of distal femur (upper row) or tibiae plateau (lower row). (FIG. 16B) Quantitative analysis of the bone marrow lesion intensity.

[2] = system: Nestin-Cre™ER::Rosa26-LacZ^fl/fl mice; assay: β-gal and osteocalcin co-staining in subchondral bone of Nestin-CreER::Rosa26-LacZfl/fl ACLT mice; type: in vivo, mouse
Source text: We purchased Nestin-Cre™ER and (ROSA)26Sortm1Sor/J mice from the Jackson Laboratory. Floxed type II TGF-β receptor (TβRII^fl/fl) mice were obtained from Dr. Moses' lab. Nestin-Cre™ER mice were crossed with TβRII^fl/fl mice. The offspring were intercrossed to generate the following offspring: nestin-Cre™ER::TβRII^fl/fl, in which Cre was fused with a mutated estrogen receptor that could be activated by Tamoxifen. We determined the genotype of transgenic mice by PCR analyses of genomic DNA isolated from mouse tails. Genotyping for the Cre transgene was performed by PCR with the primers Cre 5′ (5′-CAAATAGCCCTGGCAGAT-3′) and Cre 3′ (5′-[…]-3′). The loxP TβRII allele was identified with the primerslox1F (5′-[…]-3′) and lox1R (5′-[…]-3′). We generated Nestin-Cre™ER::Rosa26-LacZ^fl/fl mice by crossing nestin-Cre™ER mice with mice homozygous with a loxP-flanked DNA STOP sequence preventing expression of the downstream lacZ gene. The offspring were then intercrossed to generate the following genotype: Nestin-Cre™ER::Rosa26-LacZ^fl/fl. We performed sham or ACLT operations on two month-old, male WT, Nestin-Cre™ER::TβRII^fl/fl and Nestin-Cre™ER::Rosa26-lacZ^fl/fl male mice. […]
Histochemistry, Immunohistochemistry and Histomorphometry. […] We calculated OARSI scores as previously described.

active TGF-β1 = conditions: injection; cited from earlier work
[3] = 9 month old ACLT mice, listed as WI inhibitor, 1 mg/kg

TGF-β1: recombinant hTGF-β1 (R&D Systems) used to treat cultured MSCs
dose giving maximal increase of phosphorylated Smad1/5/8 (MSCs): 5 ng/mL
phosphorylation of Smad2/3 and Smad1/5/8 (MSCs; low concentrations): stimulated phosphorylation

Cc1cccc(-c2[nH]c(C(C)(C)C)nc2-c2ccc3c(c2)OCO3)n1 [TβRI inhibitor]
articular cartilage degeneration (9-month-old ACLT mice; 9 month old ACLT mice, 1 mg/kg): attenuated the articular cartilage degeneration
subchondral bone structure / architecture (9-month-old ACLT mice; 9 month old ACLT mice, 1 mg/kg): improved subchondral bone architecture
articular cartilage degeneration (9-month-old ACLT mice; [3]): attenuated
subchondral bone structure / architecture (9-month-old ACLT mice; [3]): improved
trabecular pattern factor (Tb. Pf), μCT (9-month-old ACLT mice; 9 month old ACLT mice, 1 and 2 months post ACLT, relative to ACLT-Vehicle): decreased the trabecular pattern factor
thickness of subchondral bone plate (SBP), μCT (9-month-old ACLT mice; 9 month old ACLT mice, 1 month post-surgery, compared to sham-operated controls): remained normal
effect on articular cartilage (9-month-old ACLT mice; sham-operated 9 month old mice, 1 mg/kg): did not have significant effect on articular cartilage
subchondral bone marrow lesions in knee joints [1]: significantly reduced
distribution of β-gal+ MSC lineage cells in subchondral bone [2]: primarily distributed on bone surface
subchondral bone tissue volume (TV), μCT (ACLT mice; 1 mg kg^−1): normalization of subchondral bone TV
thickness of subchondral bone plate (SBP), μCT (ACLT mice; 1 mg kg^−1): maintenance of the thickness of SBP
trabecular pattern factor (Tb. Pf), μCT (ACLT mice; 1 mg kg^−1): decrease in Tb. Pf
degeneration of articular cartilage (ACLT mice; 0.1 and 0.5 mg/kg, 2 months after ACLT): nor prevent the degeneration of articular cartilage
contrast signal in MRI perfusion analysis (ACLT mice; 1 month post ACLT): the increase was prevented
expression of ALK5 in subchondral bone (ACLT mice; 2 weeks post-surgery): the increase was inhibited
pSmad2/3+ cells in subchondral bone (ACLT mice; 2 weeks post-surgery): the increase was prevented
expression level of ALK1 in subchondral bone (ACLT mice; 2 weeks post-surgery, relative to sham): remained unchanged
number of pSmad1+ cells in subchondral bone (ACLT mice; 2 weeks post-surgery, relative to sham controls): remained relatively stable
subchondral bone structure (ACLT mice; 2.5 and 5 mg/kg daily i.p. for 30 days, ACLT mice): could rescue the bone structure
co-localization of osterix+ osteoprogenitors and TRAP+ osteoclasts (ACLT mice; 14 and 30 days, immunostaining): co-localization of osterix and TRAP was seen
increase of nestin+ MSCs in subchondral bone marrow (ACLT mice; 30 days post-surgery, immunostaining): prevented
CD31+ endothelial progenitors in subchondral bone (ACLT mice; ACLT mice): reduced
bone volume/tissue volume (BV/TV), μCT (ACLT mice; all doses, 30 and 60 days post ACLT): did not change BV/TV
subchondral bone tissue volume (TV), μCT (ACLT mice; high doses 1, 2.5 and 5 mg/kg): inhibited the increase in TV
trabecular pattern factor (Tb. Pf), μCT (ACLT mice; high doses 1, 2.5 and 5 mg/kg): decreased Tb. Pf
subchondral bone structure (ACLT mice; higher concentrations, beginning at 1 mg kg^−1): improved subchondral bone structure
bone marrow lesion in tibial subchondral bone (ACLT mice; micro-MRI, vs ACLT-vehicle treated mice): obviously smaller in size
increased number of osterix+ osteoprogenitor clusters in bone marrow (ACLT mice; one month post ACLT, vs vehicle): attenuated
gait analysis: disparity of maximum contact time (Maxcontactat %) of the two hind limbs (ACLT mice; two months post-surgery, Catwalk system): rescued
OARSI score of articular cartilage (ACLT mice; vs vehicle treated ACLT mice): protective effect
uncoupled bone formation induced by high concentrations of active TGF-β1 (active TGF-β1): rescue uncoupled bone formation
